Assay results as given in US11976047B1, “4,5-bis(4-bromo-phenyl)-1-hexyl-2-(2- methoxyphenyl)-1H-imidazole as an antimicrobial compound” (KING FAISAL UNIVERSITY, priority 2023, dated 2024).

How the values were obtained:
Format in all cases: cell-based
Details in all cases: after 10, 20, 40 and 60 minutes at all dilutions 1:100, 1:200, 1:400, 1:800 (summary in words)
Pseudomonas aeruginosa = assay: Antimicrobial screening by agar dilution, Pseudomonas aeruginosa
Procedure: (§1) The antimicrobial properties of the 4,5-bis(4-bromo-phenyl)-1-hexyl-2-(2-methoxyphenyl)-1H-imidazole was studied by the method of agar dilution. Test solutions of each compound was prepared in concentration of 1% using dimethylformamide as a solvent then they are diluted in physiological solution to obtain the final experimental dilutions 1:100, 1:200, 1:400, 1:800. The effect of these substances are compared with furacillin in a controlled study. The testing microbes used were gram positive bacteria Staphylococcus aureus, gram negative bacteria Pseudomonas aeruginosa and Escherichia coli and Candida albicans fungi were taken. The experiments used for this survey were meat-pentonlu agar (EPA) for cultivation of bacteria and Saburo environment for fungi. Each experiment used 1 ml of test solution on each plate 500 min. Add 2 drops of emulsified with microbes feel. All experimental samples were taken from the agar after 10, 20, 40, 60 minutes in the environment on the basis of Patrk planted. Bacteria were cultivated at a temperature of 37° C. for 1 day and the mushroom was kept in a thermostat for 2 hours at a temperature of 28° C. in the. Then results were checked.

Escherichia coli = assay: Antimicrobial screening by agar dilution, Escherichia coli
Procedure: as §1

Candida albicans = assay: Antimicrobial (antifungal) screening by agar dilution, Candida albicans
Procedure: as §1

Staphylococcus aureus = assay: Antimicrobial screening by agar dilution, Staphylococcus aureus
Procedure: as §1

CCCCCCn1c(-c2ccccc2OC)nc(-c2ccc(Br)cc2)c1-c1ccc(Br)cc1 [4,5-bis(4-bromo-phenyl)-1-hexyl-2-(2-methoxyphenyl)-1H-imidazole]
highest inhibition activity: inhibition activity, Pseudomonas aeruginosa (Pseudomonas aeruginosa) | inhibition activity, Escherichia coli (Escherichia coli) | inhibition activity, Candida albicans (Candida albicans) | inhibition activity, Staphylococcus aureus (Staphylococcus aureus)
